Laboratory results: US11602533B2, “Crenolanib combination therapy” (Arog Pharmaceuticals, Inc., priority 2018, dated 2023)

Experiments:
tumors = conditions: treatment with imatinib; cited from earlier work
[1] = test system: tumor interstitial pressure; conditions: rat model; cited from earlier work
implanted tumors = conditions: mouse; cited from earlier work
renal cancer patients = conditions: monotherapy; cited from earlier work
[2] = Clinical tolerability of crenolanib, single agent and with chemotherapy; format: in vivo; conditions: single agent and combined with chemotherapy; most common adverse events gastrointestinal toxicities, elevated liver enzymes and bilirubin, edema/effusions
Text: Unlike axitinib, VEGF/VEGFR antibodies are associated with minimal toxicity and the combination of these antibodies and chemotherapy is very well-tolerated. In particular, axinitinib monotherapy (in renal cancer patients) is associated with notable toxicities, including all-grade fatigue, anorexia, nausea, diarrhea and hand-foot syndrome in >25% of patients. Additionally, paclitaxel is less myelosuppressive than docetaxel. These improved toxicities support the combination of crenolanib and an alternative VEGFR inhibitor (including ramucirumab) in addition to and chemotherapy in patients with advanced cancers.

gastric cancer = conditions: monotherapy; cited from earlier work

Molecule: Cc1ccc(NC(=O)c2ccc(CN3CCN(C)CC3)cc2)cc1Nc1nccc(-c2cccnc2)n1 [Imatinib]
- effect on anti-tumor effect of paclitaxel (tumors): increased anti-tumor effect of paclitaxel
- effect on paclitaxel uptake by the tumors (tumors): increased paclitaxel uptake by the tumors
- effect on capillary-to-interstitium transport of solutes [1]: increase the capillary-to-interstitium transport of solutes
- effect on interstitial hypertension [1]: decrease interstitial hypertension

Molecule: Cc1cc(C)c(/C=C2\C(=O)Nc3ccccc32)[nH]1 [SU5416]
- effect on established tumor blood vessels (implanted tumors): failed to induce regression of established blood vessels
- effect on tumor growth (implanted tumors): prevented tumor growth

Molecule: Cc1[nH]c(/C=C2\C(=O)Nc3ccccc32)c(C)c1CCC(=O)O [SU6668]
- effect on established tumor blood vessels (implanted tumors): regression of established tumor vessels
- effect on tumor growth (implanted tumors): suppression of tumor growth

Molecule: CNC(=O)c1ccccc1Sc1ccc2c(/C=C/c3ccccn3)n[nH]c2c1 [axinitinib]
- patients with all-grade fatigue, anorexia, nausea, diarrhea and hand-foot syndrome (renal cancer patients): > 25%

Molecule: CC1(COc2ccc3c(c2)ncn3-c2ccc3cccc(N4CCC(N)CC4)c3n2)COC1 [crenolanib, 4-Piperidinamine, 1-[2-[5-[(3-methyl-3-oxetanyl)methoxy]-1H-benzimidazol-1-yl]-8-quinolinyl]]
- tolerability [2]: generally well tolerated

Molecule: ramucirumab: antibody against VEGF receptor 2 (VEGFR2)
- progression-free survival (PFS) improvement over placebo (gastric cancer): 0.8 months
- response rate (RR) (gastric cancer): 3%
